# Legend:
# [1] = target: T1, human AT1 receptor (Homo sapiens, UniProt P30556); assay: Binding assay using human AT1 receptor-expressing CHO-K1 cell membrane fraction ([125I]-angiotensin II); conditions: 22.5 pM [125I]-angiotensin II, 9 μg AT1 membrane, 1 hr room temperature; read-out: AT1 receptor binding inhibitory action (IC50 (nM))
# T1 construct: expressed in transfected cells; host or cells: CHO-K1
# T1 sequence (P30556 1-359): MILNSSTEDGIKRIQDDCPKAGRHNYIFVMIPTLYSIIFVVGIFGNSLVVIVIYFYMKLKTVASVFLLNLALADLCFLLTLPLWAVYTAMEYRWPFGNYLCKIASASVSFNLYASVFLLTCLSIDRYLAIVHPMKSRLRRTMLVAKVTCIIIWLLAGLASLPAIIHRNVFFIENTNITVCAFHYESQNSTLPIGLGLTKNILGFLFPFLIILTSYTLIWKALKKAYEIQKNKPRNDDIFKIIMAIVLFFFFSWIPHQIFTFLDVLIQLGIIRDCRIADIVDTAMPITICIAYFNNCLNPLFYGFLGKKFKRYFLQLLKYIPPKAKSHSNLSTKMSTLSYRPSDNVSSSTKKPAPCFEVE
# Procedure, shortened: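 Radioligand displacement: test compound competed with [125I]-angiotensin II (22.5 pM) on stable CHO-K1 AT1 membrane fraction, 1 hr, room temperature, Tris pH 7.4/MgCl2 buffer ± 0.3 mg/mL BSA. Filtration then scintillation counting; 1 μM CV-11974 defined nonspecific binding. Values are IC50s.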
# [2] = target: T2, PPARγ (Homo sapiens, UniProt P37231); assay: Evaluation of PPARγ activating action (luciferase reporter in PPARγ:RXRα:4ERPP/CHO-K1 cells); type: cell-based; conditions: CHO-K1, 24 h; test compound 10^−6 M; luciferase activity relative to control compound X (1 μM) = 100%, non-administration group = 0%; read-out: PPARγ activating action (activation % (10^−6 M))
# T2 construct: expressed in transfected cells; host or cells: CHO-K1
# T2 sequence (P37231 1-477 isoform P37231-2): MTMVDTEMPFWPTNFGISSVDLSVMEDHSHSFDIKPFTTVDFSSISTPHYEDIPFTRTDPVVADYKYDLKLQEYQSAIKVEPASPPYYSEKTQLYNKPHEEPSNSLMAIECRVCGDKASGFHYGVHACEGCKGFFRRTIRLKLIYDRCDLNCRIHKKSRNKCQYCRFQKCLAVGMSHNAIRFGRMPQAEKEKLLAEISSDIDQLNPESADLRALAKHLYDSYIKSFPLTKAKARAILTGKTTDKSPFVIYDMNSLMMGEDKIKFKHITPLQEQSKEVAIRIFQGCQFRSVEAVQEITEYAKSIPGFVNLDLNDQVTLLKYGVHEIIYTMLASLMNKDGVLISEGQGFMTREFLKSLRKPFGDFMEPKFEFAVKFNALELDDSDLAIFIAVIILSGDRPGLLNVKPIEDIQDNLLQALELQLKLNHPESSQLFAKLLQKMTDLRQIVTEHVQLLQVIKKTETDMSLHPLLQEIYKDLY
# T2 sequence (P19793 1-462 partner): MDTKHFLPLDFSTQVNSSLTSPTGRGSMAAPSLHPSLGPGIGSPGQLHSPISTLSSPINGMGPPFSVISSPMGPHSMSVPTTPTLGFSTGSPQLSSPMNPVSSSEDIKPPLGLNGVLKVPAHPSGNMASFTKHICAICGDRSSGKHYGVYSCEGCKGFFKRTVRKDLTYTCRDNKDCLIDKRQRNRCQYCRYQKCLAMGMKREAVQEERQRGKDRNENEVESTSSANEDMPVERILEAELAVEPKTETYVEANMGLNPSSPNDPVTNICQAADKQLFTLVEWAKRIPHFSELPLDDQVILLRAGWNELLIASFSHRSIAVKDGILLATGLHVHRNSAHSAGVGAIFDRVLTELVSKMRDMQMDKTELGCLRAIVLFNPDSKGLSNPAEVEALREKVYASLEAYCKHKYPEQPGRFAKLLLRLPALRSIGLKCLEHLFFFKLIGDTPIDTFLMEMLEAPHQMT
# Procedure, shortened: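 Activity is expressed as percent, where vehicle gives 0% and 1 μM compound X gives 100%, based on luciferase luminescence. Reporter CHO-K1 cells co-expressing PPARγ:RXRα with a 4ERPP-driven luciferase were incubated with test compound for one day at 37 °C in medium with 0.1% fatty acid-free BSA.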
IC50 [1],activation at 1 µM [2],SMILES
2.4 nM,31.5%,"CCCc1nc(CC)c(-c2ccc(OC(C)C)nc2)c(=O)n1Cc1ccc(-c2ccccc2-c2noc(=O)[nH]2)cc1 [Example 483, 6-ethyl-5-(6-isopropoxypyridin-3-yl)-3-{[2′-(5-oxo-4,5-dihydro-1,2,4-oxadiazol-3-yl)biphenyl-4-yl]methyl}-2-propylpyrimidin-4(3H)-one]"
1.5 nM,22.7%,"CCCc1nc(C)n(-c2ccc3c(c2)C(O)CC(C)(C)O3)c(=O)c1Cc1ccc(-c2ccccc2-c2noc(=O)[nH]2)cc1 (centres unmarked) [Example 144, 3-(4-hydroxy-2,2-dimethyl-3,4-dihydro-2H-chromen-6-yl)-2-methyl-5-{[2′-(5-oxo-4,5-dihydro-1,2,4-oxadiazol-3-yl)biphenyl-4-yl]methyl}-6-propylpyrimidin-4(3H)-one]"
1.8 nM,40.9%,"CCCc1nc(C)c(Cc2ccccc2)c(=O)n1Cc1ccc(-c2ccccc2-c2noc(=O)[nH]2)cc1 [Example 287, 5-benzyl-6-methyl-3-{[2′-(5-oxo-4,5-dihydro-1,2,4-oxadiazol-3-yl)biphenyl-4-yl]methyl}-2-propylpyrimidin-4(3H)-one]"
1.3 nM,27.2%,"CCCc1nc(CC)n(-c2ccc(OC3(CO)CCC3)cc2)c(=O)c1Cc1ccc(-c2ccccc2-c2noc(=O)[nH]2)cc1 [Example 419, 2-ethyl-3-(4-{[1-(hydroxymethyl)cyclobutyl]oxy}phenyl)-5-{[2′-(5-oxo-4,5-dihydro-1,2,4-oxadiazol-3-yl)biphenyl-4-yl]methyl}-6-propylpyrimidin-4(3H)-one]"
2.4 nM,58.7%,"CCCc1nc(CC)n(-c2ccc(OC(C)C)cc2)c(=O)c1Cc1ccc(-c2ccccc2-c2noc(=O)[nH]2)cc1 [Example 362, 2-ethyl-3-(4-isopropoxyphenyl)-5-{[2′-(5-oxo-4,5-dihydro-1,2,4-oxadiazol-3-yl)biphenyl-4-yl]methyl}-6-propylpyrimidin-4(3H)-one]"
3.2 nM,30.8%,"CCCc1nc(CC)c(Oc2ccc(CC)cc2)c(=O)n1Cc1ccc(-c2ccccc2-c2noc(O)n2)cc1 [Example 480, 6-ethyl-5-(4-ethylphenoxy)-3-{[2′-(5-oxo-4,5-dihydro-1,2,4-oxadiazol-3-yl)biphenyl-4-yl]methyl}-2-propylpyrimidin-4(3H)-one]"
1.6 nM,27.4%,"CCCCc1nc(C)n(-c2ccccc2)c(=O)c1Cc1c(F)cc(-c2ccccc2-c2noc(=O)[nH]2)cc1F [Example 204, 6-butyl-5-{[3,5-difluoro-2′-(5-oxo-4,5-dihydro-1,2,4-oxadiazol-3-yl)biphenyl-4-yl]methyl}-2-methyl-3-phenylpyrimidin-4(3H)-one]"
2.1 nM,48.6%,"CCCc1nc(C)n(-c2ccc3c(c2)CC(C)(C)O3)c(=O)c1Cc1ccc(-c2ccccc2-c2noc(=O)[nH]2)cc1Cl [Example 397, 5-{[3-chloro-2′-(5-oxo-4,5-dihydro-1,2,4-oxadiazol-3-yl)biphenyl-4-yl]methyl}-3-(2,2-dimethyl-2,.3-dihydro-1-benzofuran-5-yl)-2-methyl-6-propylpyrimidin-4(3H)-one]"
0.7 nM,15.2%,"CCCc1nc(C)n(-c2ccc(OC3CCC(O)CC3)cc2)c(=O)c1Cc1ccc(-c2ccccc2-c2noc(O)n2)cc1F (centres unmarked) [Example 343, 5-{[3-fluoro-2′-(5-oxo-4,5-dihydro-1,2,4-oxadiazol-3-yl)biphenyl-4-yl]methyl}-3-{4-[(4-hydroxycyclohexyl)oxy]phenyl}-2-methyl-6-propylpyrimidin-4(3H)-one]"
2.5 nM,35.7%,"CCCc1nc(CC)c(-c2ccc(OC(C)C)nc2)c(=O)n1Cc1ccc(-c2ccccc2-c2noc(O)n2)cc1F [Example 467, 6-ethyl-3-{[3-fluoro-2′-(5-oxo-4,5-dihydro-1,2,4-oxadiazol-3-yl)biphenyl-4-yl]methyl}-5-(6-isopropoxypyridin-3-yl)-2-propylpyrimidin-4(3H)-one]"

# From patent publication US20100056526A1, “HETEROMONOCYCLIC COMPOUND AND USE THEREOF” (Takeda Pharmaceutical Company Limited, priority 2006, published 2010)
